Earlier results on one molecule are cited in patent US20150361500A1, “BIOMARKERS FOR DIAGNOSIS AND TREATMENT OF ACNE VULGARIS” (DermTech International, priority 2013, published 2015).

The series deals with acne.

On to `O=C(OOC(=O)c1ccccc1)c1ccccc1` [Benzoyl peroxide], for which the tolerability entry (2.5% concentration compared with 5 and 10%) is reported as “usually better tolerated”. The “effectiveness in acne treatment” value (5 and 10% concentrations compared with 2.5%) is “not significantly more effective”. Moreover, the skin reactions result (gel or cream applied to affected areas) was “commonly causes initial dryness and sometimes irritation”.
